# Key:
# Assay in all cases: relative viability (nuclei count vs DMSO), 5 days (fraction); higher = more cells survive
# TPCA-1 + Foretinib = compound: C1=CC(=CC=C1C2=CC(=C(S2)NC(=O)N)C(=O)N)F [TPCA-1] + COc1cc2c(Oc3ccc(NC(=O)C4(C(=O)Nc5ccc(F)cc5)CC4)cc3F)ccnc2cc1OCCCN1CCOCC1 [Foretinib] (partner 0.25 µM)
# Summary of the method: (§1)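 Nuclei were stained with Hoechst during a one-step fixation (final 0.05% Triton X-100, 1% formaldehyde, 1 ug/ml Hoechst) carried out 5 days after dosing, then counted on 4× images. The cells, lung cancer lines in 1536-well plates, had been dosed by pin tool the day after seeding with one drug alone or a fixed anchor-drug dose plus five library-drug doses (not always all listed) in √10 steps. Relative viability is the nuclei count in treated wells divided by that in vehicle wells, and each value is the median of duplicate plates.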
# [1] = compound: C[C@]12O[C@H](C[C@]1(O)CO)n1c3ccccc3c3c4c(c5c6ccccc6n2c5c31)CNC4=O [Lestaurtinib] + CC(C)C[C@H](NC(=O)[C@H](Cc1ccccc1)NC(=O)c1cnccn1)B(O)O [Bortezomib] (partner 0.002 µM)
# Summary of the method: as §1
# [2] = compound: C1/C(=C\C2=CC=CS2)/C(=O)/C(=C/C3=CC=CS3)/C1 + COc1cc2c(Oc3ccc(NC(=O)C4(C(=O)Nc5ccc(F)cc5)CC4)cc3F)ccnc2cc1OCCCN1CCOCC1 [Foretinib] (partner 0.25 µM)
# Summary of the method: as §1
# [3] = compound: C[C@]12O[C@H](C[C@]1(O)CO)n1c3ccccc3c3c4c(c5c6ccccc6n2c5c31)CNC4=O [Lestaurtinib] + CCNC(=O)c1noc(-c2cc(C(C)C)c(O)cc2O)c1-c1ccc(CN2CCOCC2)cc1 [Luminespib] (partner 0.01 µM)
# Summary of the method: as §1
Cell Line,relative viability (TPCA-1 + Foretinib; first compound 0.04 µM),relative viability (TPCA-1 + Foretinib; first compound 0.1265 µM),relative viability (TPCA-1 + Foretinib; first compound 0.4 µM),relative viability (TPCA-1 + Foretinib; first compound 1.265 µM),relative viability (TPCA-1 + Foretinib; first compound 4 µM),relative viability ([1]; first compound 0.005 µM),relative viability ([1]; first compound 0.01581 µM),relative viability ([1]; first compound 0.05 µM),relative viability ([1]; first compound 0.1581 µM),relative viability ([1]; first compound 0.5 µM),relative viability ([2]; first compound 0.2 µM),relative viability ([2]; first compound 0.6325 µM),relative viability ([2]; first compound 2 µM),relative viability ([2]; first compound 6.325 µM),relative viability ([2]; first compound 20 µM),relative viability ([3]; first compound 0.005 µM),relative viability ([3]; first compound 0.01581 µM),relative viability ([3]; first compound 0.05 µM),relative viability ([3]; first compound 0.1581 µM),relative viability ([3]; first compound 0.5 µM)
NCI-H520,0.768,0.816,0.753,0.676,0.742,0.712,0.724,0.282,0.321,0.224,0.842,0.93,0.804,0.711,0.632,0.226,0.202,0.234,0.217,0.244
LU99A,0.917,0.745,0.78,0.636,0.436,1.02,1.02,0.516,0.382,0.208,0.794,0.853,1.01,0.753,0.89,0.235,0.245,0.221,0.249,0.185
NCI-H1666,0.961,0.942,0.931,0.962,0.997,0.87,1.25,0.969,0.765,0.35,0.99,1.01,0.965,0.865,0.958,1.05,1.14,1.46,0.959,0.609
LCLC-97TM1,1.11,0.877,0.94,0.633,0.587,–,0.723,0.299,0.282,0.226,0.965,0.97,0.995,0.797,0.943,0.71,0.678,0.363,0.62,0.233
NCI-H3122,1.06,0.914,1.02,0.928,0.909,1.06,1.05,1.06,1.05,0.502,1.01,0.934,1,0.81,0.846,0.114,0.116,0.115,0.0939,0.088
NCI-H2009,1.24,1.21,1.22,1.28,1.18,1.01,0.967,0.801,0.755,0.167,1.31,1.23,1.2,1.2,1.21,1.13,1.08,0.993,0.858,0.637
NCI-H1651,0.862,0.656,0.801,0.794,0.735,0.878,1.07,0.883,1.03,0.648,0.797,0.815,0.785,0.671,0.692,0.866,0.938,0.897,0.806,0.461
HARA,0.874,0.907,0.887,0.893,0.681,1.21,1.33,1,0.671,0.179,0.875,0.992,0.973,0.832,0.842,0.682,0.847,0.681,0.872,0.0984
